Laboratory results published in patent US20170296550A1, “ARYL SULTAM DERIVATIVES AS RORc MODULATORS” (Genentech, Inc., priority 2013, published 2017).

Molecular target: T1, RORc (Homo sapiens, UniProt P51449)
T1 construct: host or cells: E. coli
T1 sequence (P51449 269-508 limits assumed): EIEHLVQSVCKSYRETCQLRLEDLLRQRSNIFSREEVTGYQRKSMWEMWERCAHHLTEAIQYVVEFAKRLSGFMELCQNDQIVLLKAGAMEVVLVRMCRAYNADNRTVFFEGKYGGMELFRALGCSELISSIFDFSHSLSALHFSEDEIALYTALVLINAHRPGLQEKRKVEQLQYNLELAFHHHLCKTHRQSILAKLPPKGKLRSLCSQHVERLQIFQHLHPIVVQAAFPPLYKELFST
Assay: In Vitro RORc Ligand Binding Assay (25-[3H]hydroxycholesterol radioligand, filter plate)
Details: RORc ligand binding domain 0.6 ug/mL; 6 nM 25-[3H]hydroxycholesterol; 3 h at 25° C.
Procedure: Example 68 In Vitro RORc Ligand Binding Assay
This assay was used to determine a compound's potency in inhibiting activity of RORc by determining, Kiapp, IC50, or percent inhibition values.
On day of the assay, 100 uL of 0.05% CHAPS (in deionized H2O) was added to all wells of the GFB Unifilter plate and allowed soak for 1 h. A wash buffer of 50 mM HEPES (pH 7.4), 150 mM NaCl, and 5 mM MgCl2 was prepared to wash the filter plate. To prepare an assay buffer, BSA was added to the wash buffer to reach 0.01% and DTT was added to reach 1 mM.
For IC50 mode, 10 mM compound stocks were serially diluted in DMSO with DMSO to give 20× required final concentration in DMSO (15 uL compound+30 uL DMSO). The 20× compound stocks were diluted in DMSO with Assay Buffer 4-fold to reach 5× the final test concentration in 25% DMSO (10 uL compound+30 uL Assay Buffer). Solutions were mixed by aspiration several times with a pipette set on 50 uL volume. For the assay, 10 uL of 5× compound stock solutions in 25% DMSO were added to the assay plate in duplicate.
For two point screening, 10 mM stock compound solutions were diluted in DMSO to obtain 200 uM (20× the high test concentration) and then diluted 10-fold further to reach 20 uM (20× the low test concentration). The 20× stocks were diluted 4-fold with Assay Buffer (10 uL compound+30 uL Assay Buffer) to reach 5× the test concentrations (50 uM and 5 uM) and 10 uL were added to two assay plates for the duplicate wells. With each concentration tested on 2 plates, each set of 80 compounds used 4 assay plates (1 uM and 10 uM, with n=2).
25-hydroxycholesterol (1 uM) was used to determine the level of NSB signal is prepared in DMSO as for compounds above, then diluted in Assay Buffer to give a final concentration of 5 uM. For 25-hydroxycholesterol in 25% DMSO/75% Assay Buffer; 10 uL per well was used for NSB samples. Wells for Total Binding and No Receptor sample determination contained 10 uL of 25% DMSO/75% Assay Buffer per well.
Radioligand (25-[^3H]hydroxycholesterol) Preparation
25-[^3H]hydroxycholesterol was dilute in Assay Buffer to obtain 15 nM and vortex to mix. Add 20 uL to all wells to reach 6 nM final in the assay.
Stock receptor solution was diluted in assay buffer to obtain 1.5 ug/mL in Assay Buffer. 20 uL was added to all wells. For No R samples, 20 uL Assay Buffer was substituted for receptor solution.
Assay plates were 96-well polypropylene V-bottom plates. 10 uL of 5× compound in 25% DMSO/75% Assay Buffer was added to Test wells. 10 uL of 25% DMSO/75% Assay Buffer was added to Total Binding or No Receptor wells. 10 uL of 5 uM 25-hydroxycholesterol in 25% DMSO/75% Assay Buffer was added to NSB wells. 20 uL of 15 nM 25-[^3H]hydroxycholesterol prepared in Assay Buffer was added to all wells. 20 uL of 1.5 ug/mL RORc receptor was added to wells (or […] Assay Buffer to No R wells). Following addition to the wells, the plates were incubated 3 h at 25° C.
Using a Packard Filtermate Harvester, the filter plate were washed 4 times following transfer of the incubated samples. Plates were dry-filtered completely (2 h at 50° C. or overnight at room temperature). 50 uL Microscint 0 was added to all wells and read on Topcount protocol Inverted.
Final concentrations were as follows: 50 mM HEPES buffer (pH 7.4); 150 mM NaCl; 1 mM DTT; 5 mM MgCl2; 0.01% BSA; 5% DMSO; 0.6 ug/mL RORc receptor; 6 nM 25-[^3H]hydroxycholesterol. For NSB wells, 1 uM 25-hydroxycholesterol was also present.

Compound | IC50
CCS(=O)(=O)c1ccc(-c2ccc(CN3[C@@H](C)CCC(c4ccccc4)S3(=O)=O)c(F)c2)cc1 (stereo partly drawn) [Example 59, (3S)-2-(4′-Ethanesulfonyl-3-fluoro-biphenyl-4-ylmethyl)-3-methyl-6-phenyl-[1,2]thiazinane 1,1-dioxide] | 69 nM
Cc1noc(C)c1COc1ccc(CN2[C@@H](C)CCC(c3ccccc3)S2(=O)=O)cc1 (stereo partly drawn) [Example 60, (3S)-2-[4-(3,5-Dimethyl-isoxazol-4-ylmethoxy)-benzyl]-3-methyl-6-phenyl-[1,2]thiazinane 1,1-dioxide] | 151 nM
